The source of these data is ChEMBL document CHEMBL5584353, “Design, Synthesis, and Biological Evaluation of Potent EZH2/LSD1 Dual Inhibitors for Prostate Cancer” (J Med Chem, 2024).

In series [1] the target is T1, Lysine-specific histone demethylase 1A (Homo sapiens, UniProt O60341). Briefly: Inhibition of recombinant human LSD1 using Histone H3 as fluorometric substrate incubated for 30 mins by HRP based plate reader assay.
The target in series [2] is T1, Lysine-specific histone demethylase 1A. Kind of series: Inhibition of LSD1 in human 22Rv1 cells assessed as upregulation of H3K4me2 expression at 1 to 5 uM incubated for 5 days by Western blotting analysis. Conditions: dose 1-5 µM, time 5.0 day. Format: cell-based.
The target is the same in series [3]. Briefly: Inhibition of LSD1 in human 22Rv1 cells assessed as upregulation of H3K9me2 expression at 1 to 5 uM incubated for 5 days by Western blotting analysis. Format: cell-based. Conditions: dose 1-5 µM, time 5.0 day.
For series [4], the system named is CWR22R. Briefly: Induction of apoptosis in human 22Rv1 cells at 1 uM incubated for 5 days by Annexin V-FITC/PI staining based flow cytometric analysis (reference value: 8.97 %). The note with it: time 5 day. The format is functional.
In series [5] the test system is CWR22R. Kind of series: Induction of apoptosis in human 22Rv1 cells at 5 uM incubated for 5 days by Annexin V-FITC/PI staining based flow cytometric analysis (reference value: 8.97 %). The format is functional. Conditions: time 5 day.
Series [6] relates to PC-3. Briefly: Induction of apoptosis in human PC-3 cells at 1 to 10 uM incubated for 5 days by Annexin V-FITC/PI staining based flow cytometric analysis. Format: functional, cell-based. The note with it: dose 1-10 µM, time 5.0 day.
In series [7] the test system is CWR22R. Briefly: Induction of cell cycle arrest in human 22Rv1 cells assessed as accumulation of cells at G0/G1 phase incubated for 72 hrs by propidium iodide/RNase staining based flow cytometric analysis. Format: functional.
Series [8] concerns PC-3. Briefly: Induction of cell cycle arrest in human PC-3 cells assessed as accumulation of cells at G0/G1 phase incubated for 72 hrs by propidium iodide/RNase staining based flow cytometric analysis. The format is functional.
The subject of series [9] is LNCaP. Briefly: Induction of cell cycle arrest in human LNCaP cells assessed as accumulation of cells at G0/G1 phase incubated for 72 hrs by propidium iodide/RNase staining based flow cytometric analysis. Format: functional.
Series [10] has as its system CWR22R. Briefly: Induction of apoptosis in human 22Rv1 cells assessed as upregulation of p21 expression incubated for 48 hr by Western blotting analysis. Format: functional, cell-based.
Series [11] in a line: Metabolic stability in Sprague-Dawley rat hepatocyte assessed as half life at 20 uM incubated for 60 mins by HPLC-MS/MS analysis. Format: ADME, cell-based. Conditions: hepatocytes.
The nature of series [12]: Tmax in BALB/c mouse at 50 mg/kg,ip measured upto 24 hrs by HPLC-MS/MS analysis. Format: ADME, organism-based. The note with it: in vivo.
Series [13] can be described thus: AUC (0 to infinity) in BALB/c mouse at 50 mg/kg,po measured upto 24 hrs by HPLC-MS/MS analysis. The format is ADME, organism-based. The note with it: in vivo.
A short description of series [14]: Clearance in BALB/c mouse at 50 mg/kg,po measured upto 24 hrs by HPLC-MS/MS analysis. The format is ADME, organism-based. The note with it: in vivo.
In series [15] the test system is CWR22R. Briefly: Antitumor activity against human 22Rv1 cells xenografted in BALB/c mouse assessed as reduction in tumor weight at 80 mg/kg,ip administrated daily for 31 days. Format: functional, organism-based. The note with it: time 31.0 day.
The nature of series [16]: Toxicity in BALB/c mouse xenografted with human 22Rv1 cells assessed as heart morphological change at 80 mg/kg,ip administrated daily for 31 days. The note with it: in vivo, 744 h, time 31 day. The format is organism-based, CWR22R.
In series [17] the target is T1, Lysine-specific histone demethylase 1A. Briefly: Inhibition of LSD1 in human 22Rv1 cells assessed as downregulation of AR-V7 expression at 1 to 20 uM incubated for 48 hrs by Western blotting analysis. The note with it: dose 1-20 µM. The format is cell-based.
Series [18] concerns PC-3. Briefly: Antiproliferative activity against human PC-3 cells assessed as inhibition of cell growth incubated for 6 to 7 days by MTS assay. Format: functional, cell-based. Conditions: time 6-7 day.
The test system of series [19] is CWR22R. Kind of series: Antiproliferative activity against human 22Rv1 cells assessed as inhibition of cell growth incubated for 6 to 7 days by MTS assay. Format: functional, cell-based. The note with it: time 6-7 day.
The subject of series [20] is LNCaP. Kind of series: Antiproliferative activity against human LNCaP cells assessed as inhibition of cell growth incubated for 6 to 7 days by MTS assay. Format: functional, cell-based. Conditions: time 6-7 day.
A further series has as its system LNCaP C4-2B. Kind of series: Antiproliferative activity against human LNCaP C4-2B cells assessed as inhibition of cell growth incubated for 6 to 7 days by MTS assay. Format: functional, cell-based. The note with it: time 6-7 day.
The subject of series [21] is CWR22R. Conditions: Homo sapiens, dose 80.0 mg/kg, route ip, time 31.0 day.

The source made the active and inactive calls. The rule behind the calls is not given here. Where only a bound is given, the exact number is not on record here.

As for `CCN(c1cc(-c2ccc([C@@H]3C[C@H]3N(CC3CCOCC3)C(=O)OC(C)(C)C)cc2)cc(C(=O)NCc2c(C)cc(C)[nH]c2=O)c1C)C1CCOCC1` (racemic), the IC50 in series [1] was above 3 µM. Further, the inhibition result (in [2]; in [3]; in series [17]; with CWR22R [21]) was “Active” in each case. Besides, the Activity in the series on CWR22R [4] was 17.71%; in the series with CWR22R [5], 30.97%; in the series with CWR22R [7], “Dose-Dependent Effect”; with PC-3 [8], “Dose-Dependent Effect”; in the series on LNCaP [9], “Dose-Dependent Effect”; with CWR22R [10], “Dose-Dependent Effect”. For the same compound, in [16], the Activity result was “Non-Toxic”. For the same compound, the result in the series on PC-3 [6], in the series with CWR22R [15], in the series on PC-3 [18], in the series with CWR22R [19], in the series with LNCaP [20] and with LNCaP C4-2B was Active. In addition, the half-life at 20 µM in series [11] worked out at 5.5 h. Also, the Tmax in [12] came to 2 h. Also, the AUC(0-inf) in series [13] is 41400 ng·h/mL. Moreover, in series [14], the CL/F is 20 mL/min/kg.
